The IC50 is the concentration at which inhibition is half-maximal. A high value points to weaker potency in that assay. As a reminder, the inhibition is the share of the control response that was lost under treatment. By % Inhibition is commonly meant the share of the control response that was lost under treatment. A higher % Inhibition goes with a strong effect. The ED50 is the midpoint of the dose-response relation.

Results on ten compounds are retold here after patent US4845292A, “Hydroxy containing amines as phospholipase A2 inhibitors” (American Home Products Corporation, priority 1988, dated 1989).

One test deals with T1, human platelet PLA2 (Homo sapiens, UniProt P14555).
T1 sequence (P14555 21-144): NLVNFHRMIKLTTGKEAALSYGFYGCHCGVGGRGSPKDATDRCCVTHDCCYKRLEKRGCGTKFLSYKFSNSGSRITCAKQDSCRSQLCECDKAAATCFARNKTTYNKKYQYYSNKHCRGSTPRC
Put plainly: Inhibition of cell free human platelet PLA2 (hydrolysis of [3H]-AA labelled E. coli phospholipids). The test is classed as biochemical. To be noted: Table 1; compounds of the invention; human platelet PLA2, pH 7.4, 37° C., 30 minutes. As for the experimental part:
The ability of the compounds of the invention to inhibit the activity of cell free human platelet PLA2 enzyme is measured in the following in vitro assay.
(§1) The assay is carried out as follows:
E. coli, cultured to exponential growth, are sedimented for 15 minutes at 10,000 g and resuspended in sterile isotonic saline (1-3 ml). 10-25 μCi uniformly labeled [^3 H]-arachidonic acid (AA) is added to a sterile flask, evaporated by N2 and resolubilized with 0.3 ml 20% fatty acid-free bovine serum albumen (BSA). 75-100 ml of nutrient broth and 1 ml E. coli are then added to each flask and incubated for 2-3 hours at 37° C. [^3 H]-AA labelled E. coli are then sedimented, suspended in saline and added to fresh nutrient broth and incubated for 1.5 hours at 37° C. to complete [^3 H]-AA incorporation into the phospholipids. After overnight refrigeration of cultures, E. coli are again sedimented, suspended in saline and autoclaved for 15 minutes at 120° C. E. coli cultures are washed twice with saline (first wash contains 1% BSA) and resuspended in saline. Non-labelled E. coli cultures are also prepared in the same manner. Cell number is determined by measuring the optical density at 550 nm ([…]=1 O.D.). The amount of radioactivity associated with cells is determined by counting a defined volume of cell suspension. The specific activity is subsequently adjusted by adding non-labelled E. coli to yield 10,000 cpm/10 […] of E. coli/25 ml.
Platelet PLA2 Preparation
Expired human platelets from the blood bank are centrifuged for 15 minutes at 200 g to obtain a platelet rich fraction and to remove the red blood cells. Platelets are sedimented for 15 minutes at 2500 g and the plasma is removed before adding cold 0.18N H2 SO4 (4ml/unit). Platelets are homogenized, incubated for 1 hour at 4° C., homogenized again and centrifuged for 15 minutes at 10,000 g. The PLA2 enriched supernatant fluid is removed and the amount of protein is determined by the Lowry method. The preparation is divided into various portions and stored at -20° C.
The assay measures the hydrolysis of E. coli membrane phospholipids via the release of free [^3 H]-AA from the C-2 position of phospholipids by human platelet PLA2. To ice cold 15×100 mm test tubes, the following additions are made; 2.5×10^8 E. coli (equivalent to 5 nmol phospholipid), 5 mM Ca^++, 100 mM Tris buffer (pH=7.4), 100 μg platelet extract (or an amount to produce 20-30% hydrolysis), drug or vehicle. Incubations are carried out at 37° C. in a shaking water bath for 30 minutes. The reaction is terminated by the addition of 2 volumes of tetrahydrofuran (THF) and the mixture is vortexed. Hydrolyzed [^3 H]-AA is separated from unhydrolyzed phospholipid by solid phase extraction using Bond elute NH2 columns (Analytichem Internat.). Columns are conditioned with 0.5 ml THF followed by 0.5 ml THF:H2 O (2.0:0.1 ml/v/v). Samples are loaded onto columns and hydrolyzed [^ 3 H]-AA is eluted with 1 ml THF:glacial acetic acid (98.0:2.0 ml v/v). The eluant is transferred to vials, 10 ml Optifluor is added and the radioactivity is determined by liquid scintillation counting.
Treatments are corrected for non-enzymatic hydrolysis by subtracting the dpms in treatments containing no enzyme Mean [^3 H]-AA dpm is determined and a percent inhibition relative to vehicle treated samples is calculated.
The percent hydrolysis is calculated by the following equation: [formula]

The test system of test [1] is synthesis of LTB4 by rat glycogen-elicited polymorphonuclear leukocytes (PMN). Put plainly: Inhibition of LTB4 synthesis by rat glycogen-elicited polymorphonuclear leukocytes in the presence of exogenous substrate. It counts as cell-based. The conditions noted are these: Leukocyte, A23187 stimulated; for inhibition at 10 µM: Table 2, at 10 μM.
Text: This is especially true with respect to 5,12-diHETE, which is also denoted as LTB4 [see Ford-Hitchinson, J. Roy. Soc. Med., 74, 831 (1981)]. Compounds which inhibit the PLA2 -mediated release of arachidonic acid thereby effectively prevent the oxidation of arachidonic acid to the various leukotriene products via the lipoxygenase cascade. Accordingly, the specificity of action of PLA2 inhibitors can be determined by the activity of test compounds in this assay, which measures the ability of compounds to inhibit the synthesis of LTB4 by rat glycogen-elicited polymorphonuclear leukocytes (PMN) in the presence of exogenous substrate.
as §1
(§2) Rat polymorphonuclear leukocytes (PMNs) are obtained from female Wistar rats (150.200 g) which receive an injection of 6% glycogen (10 ml i.p.). Rats are sacrificed 18-24 hours post injection by CO2 asphyxiation and the elicited cells are harvested by peritoneal lavage using physiological saline (0.9% NaCl). The exudate is centrifuged at 400×g for 10 minutes. The supernatant fluid is discarded and the cell pellet is resuspended to a concentration of 2.0×10^7 cells/ml in HBSS containing Ca^++ and Mg^++ and 10 μM L-cysteine.
(§3) To 1 ml aliquots of cell suspension, test drugs or vehicle are added, then preincubated at 37° C. for 10 minutes. A23187 (1 μM), [^3 H]-AA (3.0 μCi/ml) and unlabeled AA (1 μM) are then added and the samples are further incubated for 10 minutes. The reaction is terminated by centrifugation and pelleting cells. Supernatants are then analyzed by HPLC analysis on a 15 cm×4.6 mm ID Supelcosil LC-18 (Supelco)(3M) column, using a two solvent system at a flow rate of 1.4 ml total flow as follows:
Gradient: (system is equillibrated with Solvent A)
Percent solvent changes are accomplished in a linear fashion.
(§4) Injections: 150 μl of each supernatant is injected directly onto column and ^3 H arachidonic acid metabolites are monitored using an on-line radioactivity detector (Ramona, IN/US, Fairfield, NJ).
Standards: 10^4 -2.0×10^4 dpm of eicosanoids of interest are injected in 90 μl EtOH cocktail.
Co-chromatography with standard [^3 H] leukotriene B4 (LTB4) in medium of stimulated PMN exposed to drug is compared to that found in medium of stimulated cells exposed to no drug, generating percent inhibition.
(§5) Results are expressed as percent inhibition at a given compound dose.

Test [2] deals with synthesis of TxB2 by rat glycogen-elicited polymorphonuclear leukocytes. Put plainly: Inhibition of synthesis of the cyclooxygenase product TxB2 (procedure of Example 7). The test is classed as cell-based. The conditions noted are these: Leukocyte, rat PMN, A23187 stimulated; for inhibition at 10 µM: Table 3, at 10 μM. As for the experimental part:
as §2, §3, §4, §5
In this assay, the procedure of Example 7 is carried out as described. However, in order to determine cyclooxygenase activity, the samples are co-chromatographed with authentic reference [^3 H]-TxB2.
The results are calculated as in Example 7 and presented below: […]

In test [3] the test system is rat carrageenan paw edema. The experiment in a line: Rat carrageenan paw edema. The test is classed as in vivo, rat (Sprague-Dawley). To be noted: for % Inhibition at 50 mg/kg (peroral): Table 5, 1 hour prior to carrageenan, edema at 3 hours; for ED50: Rattus norvegicus, po, 3 h, read-out: Oral ED50 (95% C.L.). As for the experimental part: The compounds in the scope of the invention are further tested in the rat carrageenan paw edema to determine their ability to inhibit the acute inflammatory response. This assay is carried out as follows: […] male Sprague-Dawley rats, in groups of 6 animals are injected subcutaneously in the right paw with 0.1 ml of 1% carrageenan at zero time. Mercury plethysmographic readings (ml) of the paw are made at zero times and 3 hours later. Test compounds are suspended or dissolved in 0.5% methylcellulose and given perorally 1 hour prior to carrageenan administration. The increase in paw volume (edema in ml.) produced by the carrageenan is measured. […] Unpaired Student's t-test is used to determine statistical significance.

Counter-ions that a name gives are not always drawn. Some results are limits rather than exact numbers.

`COC(=O)C1CCCN1CCCCCCCCCCCOc1ccccc1` (racemic) [Example 3b, 1-(11-Phenoxyundecyl)-DL-proline methyl ester, hydrochloride] showed an IC50 against human platelet PLA2 of 63 µM. This lies in the double-digit micromolar range.

`CCCCCCCCCCCCCCCCCCNC(CO)CCCC.Cl` (centres unmarked) [Example 1, 2-(Octadecylamino)-1-hexanol, hydrochloride] returned an IC50 at human platelet PLA2 of 12 µM. The inhibition at 10 µM amounted to 24% in test [1] and 26% in test [2]. Besides, in test [3], the “% Inhibition at 50 mg/kg (peroral)” value is listed as 26%.

In turn, `CCOC(CNCCCCCCCCCCCOc1ccccc1)OCC.Cl` [Example 4, N-(2,2-diethoxyethyl)-11-phenoxyundecanamine, hydrochloride] had an IC50 against human platelet PLA2 of 33 µM. The “% Inhibition at 50 mg/kg (peroral)” value in test [3] worked out at 34%.

For the compound `CC(=O)Oc1ccccc1C(=O)O` [Aspirin, reference compound], in test [3], the ED50 stood at 145 mg/kg.

As to `CCCCC(CO)NCCCCCCCCCCc1ccccc1.Cl` (centres unmarked) [Example 2a, 2-[(10-Phenyldecyl)amino]-1-hexanol, hydrochloride], at human platelet PLA2, the IC50 was 19 µM. The inhibition at 10 µM in test [1] was 89%; in test [2], 73%. Also, the “% Inhibition at 50 mg/kg (peroral)” value in test [3] amounted to 39%.

Regarding `COc1ccc2c(c1)c(CC(=O)O)c(C)n2C(=O)c1ccc(Cl)cc1` [Indomethacin, reference compound], the ED50 in test [3] worked out at 3.7 mg/kg.

`Cl.OC[C@@H]1CCCN1CCCCCCCCCCCOc1ccccc1` [Example 3a, (S)-1-(11-phenoxyundecyl)-2-pyrrolidinemethanol, hydrochloride]: the IC50 at human platelet PLA2 was determined as 17 µM. Also, the results for the inhibition at 10 µM in test [1] and in test [2] were 0% and 37%, respectively. For the same compound, the “% Inhibition at 50 mg/kg (peroral)” value in test [3] is reported as 26%.

As to `CCCC[C@@H](CO)NCCCCCCCCc1ccccc1.Cl` [Example 2b, (S)-2[(8-Phenyloctyl)amino]-1-hexanol, hydrochloride], the IC50 against human platelet PLA2 was 45 µM. Besides, the inhibition at 5 µM in test [1] (Table 2, at 5 μM) stood at 52%; in test [2] (Table 3, at 5 μM), 0%. Besides, the “% Inhibition at 50 mg/kg (peroral)” value in test [3] is 25%.

At human platelet PLA2, `OC[C@H](Cc1ccc(O)cc1)NCCCCCCCCCCc1ccccc1` [Example 5, (S)-4-hydroxy-α-[(10-phenyldecyl)amino]benzenepropanol, hydrochloride] displayed an IC50 of 48 µM.

On human platelet PLA2, `CCCCC(CO)NCCCCCCc1ccccc1.Cl` (centres unmarked) [Example 2c, 2-[(6-Phenylhexyl)amino]-1-hexanol, hydrochloride] displayed an IC50 above 100 µM. In addition, the inhibition at 10 µM was 16% in test [1] and 24% in test [2]. Moreover, the “% Inhibition at 50 mg/kg (peroral)” value in test [3] is 34%.
